# Data as given in patent publication US6436705B1, “Shape stabilized erythrocytes” (The United States of America as represented by the …, priority 1997, dated 2002).
# What was measured:
# Human erythrocytes [1] = test: 'gravity-driven' filtration assay of erythrocyte deformability (5 μm pore filter); format: cell-based
# Procedure: The deformability of erythrocytes after crosslinking with diamide and its reversal with dithioerythritol is measured using a “gravity-driven” filtration assay. Diluted erythrocyte suspensions are passed through a 5 μm pore filter The relative filtration index is determined using the following expression: [formula] […] Human erythrocytes subjected to crosslinking with diamide and subsequent reversal of the crosslinking dithioeiythritol were passed through a 5 μm pore filter. Relative filtration index was determined.
# Human erythrocytes [2] = test: Freeze-thaw damage (percentage hemolysis after freezing at −20° C.); format: cell-based; settings: 5 mM diamide for 1 h at room temperature; 1 h freezing at −20° C.; FIG. 2
# Procedure: Erythrocytes pre-treated with diamide were frozen immediately or after 3 h of incubation in the freezing medium (glucose 200 mM, raffinose 139 mM, sodium citrate 33 mM, sodium phosphate dibasic 12 mM, sodium phosphate monobasic 2.9 mM, ammonium phosphate 40 mM, adenine 2 mM) to allow loading with glucose. Freezing was carried out at −20° C. in a freezer for […] and samples were thawed in a water bath at room temperature.
# After completion of the freeze-thaw cycle samples were centrifugated. After centrifugation (Eppendorfcentrifuge for 3 min at 3000×g) the supernatants were processed for hemolysis measurements. For determination of hemolysis the Cyanmethemoglobin method was applied. Absorption was read at 540 nm using a Hewlett Packard spectrophotometer. Percentage hemolysis was determined by Equation 1, supra. Percentage hemolysis was taken as a measure for freeze-thaw damage.
# Human erytirocytes were pre-treated at room temperature with 5 mM diamide for 1 h. After the incubation was completed the unreacted reagent was removed by a washing procedure and the cells were re-suspended in a freezing medium. Erythrocytes were frozen immediately or after three hours of incubation in the freezing medium to allow loading with glucose. Percentage hemolysis represents the freeze-thaw damage after 1 h freezing at −20° C. in a freezer.
# erythrocytes [3] = test: Assay of capacity for shape change (LPC-induced echinocytosis, microscopy); format: cell-based, human
# Procedure: Microscopy. Cross-linked and reversed cells were prepared as described in the section on erythrocyte preparation, etc., with the addition of 0.5% bovine serum albumin to the solution prior microscopic examination. Cells were examined using an Nikon Optiphot, equipped with PlanApo 20×objective.
# Assay of capacity for shape change. To induce echinocytosis ([…]), erythrocytes were incubated with 10μg/ml LPC for 2 min at room temperature. Erythrocytes were pretreated with 5 mM DTBP for 1 h and then subjected to 10 μg/ml LPC treatment. Microscopic examination of cell morphology was performed. Erythrocytes were pretreated with 5 mM DTBP for 1 h, reversed with 10 mM DTT for 20 min and then subjected to 10 μg/ml LPC treatment. Microscopic examination followed. Erythrocyte response to LPC of normal, cross-linked and reversed cells was compared.
# erythrocytes [4] = test: Methemoglobin formation during freeze-drying; format: cell-based; settings: CO-treated erythrocytes, FIG. 1
# Description: Freeze-drying of hemoglobin leads to the formation of significant amount of methemoglobin. Circular dichroism studies for samples of hemoglobin freeze-dried with or without protectant have shown that the absence of a protector weakly influences the confirmation in the vicinity of the heme and increases the helicity of protein chains (Thirion C et al., 1983). Freeze-drying hemoglobin without denaturing and oxidizing it was made possible by the use of carbohydrates (Labrude PB et al., 1980). […] Since red cell membrane is non-permeable to disaccharides and only lowly permeable to monosaccharides, this limits the use of carbohydrates as protectants for intracellular hemoglobin. We explored CO-treatment as a means to prevent methemoglobin formation during freeze-drying. CO-treatment stabilizes hemoglobin in the CO-hemoglobin form by liganding CO. […] To reverse the CO-treatment, a hollow fiber oxygenator can be used.
# Red cells = test: Oxygen carrying ability (oxygen content by CO-oximeter); format: cell-based, human; settings: cells subjected to CO-treatment
# Procedure: A semi-quantitative measure of oxygen carrying ability by DTBP cross-linked and reversed cells was performed. Red cells cross linked with 5 mM DTBP for different incubation times and cells reversed with DTT (see above) were processed through a membrane oxygenator to replace CO with oxygen. Oxygen saturation of the cells was measured using a CO-oximeter. After the oxygenation, cells were subjected to deoxygenation under a stream of nitrogen for 30 min. Percentage oxygen was measured again by the CO-oximeter. Oxygen binding and releasing properties for cross-linked, reversed and normal cells were compared.
# We measured oxygen content (Vol%O2) of cells subjected to cross-linking and reversal with a CO-oximeter 282. […] CO-treated and cross-linked cells with 5 mM DTBP for 5 h, which underwent re-oxygenation in the membrane oxygenator had oxygen content of 7.3 Vol%O2.
# Red blood cells [5] = test: Deformability measurements with an ektacytometer (Shear-scan, Osmo-scan); format: cell-based, human; settings: DTBP cross-linked cells after treatment with DTT; Osmo-scan
# Procedure: Red blood cells were cross-linked with 5 mM DTBP for 1 h. Cross-linking was reversed with 10 mM DTT for 20 min. Deformability measurements were made with fresh untreated, cross-linked, and reversed cells as well as with untreated packed cells stored in CPDA-1 for 6 weeks at 4° C. The effects of cross-linking and reversal on red blood cell deformability were measured with an ektacytometer (Technicon).
# The ektacytometer is a laser diffraction viscometer described in detail by Bessiss and Mohandas. Intact red blood cells and ghosts suspended in solution produce a diffuse circular laser diffraction pattern. The instrument takes advantage of the fact that when a shear force is applied to the solution crossing the beam the cells align in the direction of shear and begin deforming into uniformly oriented ellipsoids. The laser diffraction pattern then takes on an ellipsoidal shape oriented 90° from the major elliptical cell axis, with the ratio of the long axis to the short axis length determined by the degree of cell deformation. A signal proportional to mean cellular ellipticity is derived from photometric measurement of this laser diffraction pattern in the two axis directions and is designated the deformability index (DI).
# Two types of deformability profiles were generated in the present experiments. […] Shear-scans were run with 40 μl of concentrated cell suspension (80% hematocrit) mixed with 3.0 ml of 3.1% (w/v) polyvinylpyrrolidone (P, av-MW 360 kD) solution containing 138 mM NaCl, 6.34 mM Na2HPO4, 2 mM NaH2PO4, and 0.04% (w/v) NaN3 with pH=7.35±0.05, osmolality=290 mOsmol/kg (by freezing point depression), and viscosity=20 cp (assumed). Osmo-scans were run by continuous addition of this suspension medium containing 100 μl of cells to a PVP solution with a graded salt concentration. Salt gradients were made by addition of high salt PVP solution with 386 mM NaCI (osmolality=750 mOsmol/kg) to a low salt PVP solution with 2.5 mM NaCl (osmolality=40 mOsmol/kg). Conductance measurements of the cell suspension in the viscometer provided an indirect measure of osmolality, which was calculated from a standard calibration curve.
# Data was recorded onto a computer, and curves were fitted and plotted using custom routines in Matlab (The Math Works Inc, Natick, Mass.). Shear scans were fitted with a polynomial of degree 6 from which the maximum DI (DImax) was calculated. Osmo-scans were fitted with a running average, and DImax was calculated within the range of 180-240 mOsmol/Kg, along with the osmolality corresponding to 1/2DImax at hypertonic salt concentrations (0′), where DI decreases with increasing intracellular viscosity secondary to cell shrinkage and increased hemoglobin concentration (see Mohandas et al., J. Clin. Invest. 66563-73(1980)). The osmolality corresponding to the minimum DI (Omin) at hypotonic salt concentrations, where DI falls due to cell swelling, was also calculated. The height of the small DI peak thought to be associated with the sudden availability of excess membrane for deformation as intracellular ions and water are lost in the lower range of hypotonic salt (63-125 mOsmol/Kg) concentrations was also recorded (see Clark et al., Blood 61 899-910 (1983)).
# Human erythrocytes [6] = test: cells; format: cell-based; settings: Homo sapiens, Erythrocyte, read-out: hemolysis in distilled water after cross-linking reversal
# Procedure: Packed human erythrocytes from healthy donors were obtained from the National Naval Medical Center (Bethesda, Md.) within 48 h of donation and used within 7 days. Packed erythrocytes were washed twice in phosphate buffer solution (PBS) then re-suspended in PBS (1 vol PBS:1 vol packed cells). The erythrocyte suspension (100 ml) was placed on ice and carbon monoxide (CO) was bubbled through it for 2 hours. Saturation with CO (100%) was achieved under these conditions as detected with a CO-oximeter. Erythrocytes were packed and cross-linked with DTBP at 4° C. for different incubation times (from 1 to 24 h; 9 vol cross-linking solution: 1 vol packed cells). The cross-linking solution was prepared by dissolving DTBP in PBS (pH 7.8). After incubation DTBP was removed by repeated washing of the red cells in PBS (IEC Centra centrifuge for 10 min at 1008×g). Reversal of the cross-linking was carried out at room temperature with the reducing agent dithioerythritol (DTT) at a concentration of 10 mM in PBS (9 vol reducing solution: 1 vol packed cells) for 20 min or as indicated in the figure legends. DTT was removed by repeated washing of the red cells in PBS (IEC Centra centrifuge for 10 min at 1008×g). CO-treatment was reversed at room temperature using a hollow fiber membrane oxygenator model Capiox 308. Erythrocytes were processed through the oxygenator for 1 h. Saturation with oxygen (92%) was reached as detected with a CO-oximeter.
# Erythrocytes were cross-linked with DTBP at different concentrations for different incubation times. 1 ml of the erythrocyte suspension was taken out at regular incubation times centrifuged and DTBP was removed (Eppendorf centrifuge for 3 min at 3000×g). Distilled water (1 ml) was added to the remaining packed cells. After 30 min the cells were again centrifugated (Eppendorf centrifuge for 3 min at 3000×g), and the supernatants were processed for hemolysis measurements. For determination of hemolysis the cyanmethemoglobin method was applied (see Brown in “Hematology: principles and procedures” pp. 29-31 (Lea and Febiger, eds., 1984)). Absorbance was measured at 540 nm and percent hemolysis was determined by Equation (1), supra, where the control sample was lysed in distilled water.
# Erythrocyte stability in distilled water was tested after crosslinking reversal as well. Red blood cells were first cross-linked with DTBP then treated with DTT at different concentrations (from 1 to 10 mM) for different incubation times (from 5 to 20 min). Hemolysis in distilled water was measured as described above.
# Red blood cells [7] = test: Metabolic viability: ATP content of red blood cells over time; format: cell-based, human; settings: cross-linked cells treated with 10 mM DTT prior to initial glucose exposure
# Procedure: The metabolic viability of cross-linked cells was assayed by monitoring the production and depletion of ATP over time. DTBP cells were cross-linked in 5 mM DTBP 150 mM glucose for 5 hours at 4° C. The cells were then washed 3 times and incubated in 150 mM glucose for an additional 19 hrs. After washing to remove the glucose the cells were incubated at 4° C. in PBS for 72 hrs before being returned to 150 mM glucose for the final 24 hr incubation. At each time point cells were removed, washed, and spectrophotometrically assayed for ATP as described in the text. The glucose controls were cells treated in the same manor but without crosslinking, and the control cells are cells without exposure to glucose.
# Human erythrocytes [8] = test: Osmotic fragility test; format: cell-based; settings: cells treated for 1 h with 5 mM DTBP, reversed with DTT
# Procedure: An osmotic fragility test (a common clinical test) was performed on erythrocytes cross-linked with 5 mM DTBP for different incubation times and on erythrocytes cross-linked and reversed with DTT. Briefly, 1 ml of the erythrocyte suspension was taken out at regular incubation times, centrifuged, and DTBP or DTT was removed (Eppendorf centrifuge for 3 min at 3000×g). 1 ml of solutions containing buffered sodium sodium chloride at different concentrations (from 1% to 0.1% NaCl in phosphate buffer) were added to the packed cells. After 30 min the samples were centrifugated (Eppendorf centrifuge for 3 min at 3000×g), and the supernatants were processed for hemolysis measurements.
molecule,measurement,setting,value
CN(C)C(=O)/N=N/C(=O)N(C)C [diamide],Relative filtration index,"Human erythrocytes [1]; Crosslinking with 5 mM diamide, 5 μm pore filter",0.71 ± 0.03
same,Percentage hemolysis (freeze-thaw damage),Human erythrocytes [2],cryoprotection of erythrocytes
lysolecithin [LPC],shape change of normal red blood cells,"erythrocytes [3]; 10 μg/ml LPC, normal cells",shape change from discocytes to echinocytes
"[C-]#[O+] [CO, carbon monoxide]",methemoglobin formation during freeze-drying,erythrocytes [4],prevents hemoglobin oxidation to methemoglobin
same,oxygen content,Red cells,0.7 Vol%O2
"O[C@H](CS)[C@@H](O)CS [DTT, dithioerythritol]",DImax and O′ after reversal,Red blood cells [5],restored these indices towards normal values
same,Omin (osmolality corresponding to the minimum DI),Red blood cells [5],128 mOsmol/Kg
same,hemolysis at 10000 µM,Human erythrocytes [6],100%
same,Relative filtration index,"Human erythrocytes [1]; diamide-crosslinked cells, reversal of the cross-linking with 5 mM dithioerythritol",0.83 ± 0.02
same,Relative filtration index,"Human erythrocytes [1]; diamide-crosslinked cells, reversal of the cross-linking with 10 mM dithioerythritol",0.90 ± 0.01
same,amount of ATP present after reversal,Red blood cells [7],did not change the amount of ATP present
same,reversal of the effect of DTBP on osmotic fragility,Human erythrocytes [8],complete reversal
same,reversal of shape stabilizing action of DTBP,"erythrocytes [3]; 5 mM DTBP 1 h, 10 mM DTT 20 min, then 10 μg/ml LPC",completely reversible
